Where two headings read alike, the source gives them in different places.
Experiments:
[1] = system: A7r5 rat aortic smooth muscle cells; experiment: Proliferation of A7r5 rat aortic smooth muscle cells; type: cell-based; conditions: A7R5, 72 h, three days, read-out: IC50, inhibition of proliferation in A7r5 cells
Procedure: (§1) The effect of test compounds on human umbilical vein smooth muscle cells (HUVSMC), was examined. Cells, tissue explants from a neonate (HRI—passage 2), were seeded into 96 well plates at 1×10^3 cells per well, and allowed to attach for 24 hours. They were then washed twice and incubated in medium without foetal calf serum (FCS) for 24-48 hours to serum-starve them. Test compounds were prepared in medium without FCS and added to the plates and incubated for one hour. Medium with FCS was added to give a final concentration of 10% and the plates incubated for 4-5 days until the controls were just confluent.
(§2) The effect of test compounds on rat aortic smooth muscle cell line (A7r5) and another cell line from the media of rat aorta (A10) was examined. The methodology was the same as for HUVSMC, except that the cells were treated with compound for three days.

[2] = system: human umbilical vein smooth muscle cells (HUVSMC); experiment: Proliferation of human umbilical vein smooth muscle cells (MTT); type: cell-based
Procedure, shortened: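 HUVSMC (1.6×10^3 cells/well) serum-starved 20 h, pretreated 1 h with analogue at 10 μM final, then stimulated with 10% FCS. After ~5 days, when FCS controls were just confluent, MTT absorbance was read; value = test/control*100−100.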

AA-induced ear oedema = experiment: Arachidonic acid (AA)-induced ear swelling in mice; type: in vivo, BALB/c mice; conditions: 25 mg/kg i/p; 1 h post-AA application
Procedure: (§3) Groups of 5-6 female BALB/c mice (ARC, WA, Australia), weighing 15-21 g were injected intraperitoneally (i/p) with test compound at 25 mg/kg delivered in polyethylene glycol (PEG) 400: phosphate buffered saline (PBS) 1:1 or ethanol: propanediol: PBS 4:9:7 either 30 min prior to or immediately before the inflammogen was applied to the ears. Mice were anaesthetised using isoflurane and baseline thickness of both ears was measured using a spring micrometer. Each mouse received a total of 20 μL of either AA in ethanol (50 mg/ml or 200 mg/ml) or PMA in either ethanol or acetone (0.2 mg/ml) applied to the inner and outer surfaces of each pinna (i.e. 0.5 mg or 2 mg AA or 2 μg PMA per ear). Mice were anaesthetised again to re-measure the ears at 1 h post-AA application and 5 h after PMA. The difference in ear swelling pre- and post-application of inflammogen for each ear was calculated, and the average for the two ears of each mouse taken. The difference in mean swelling of each test group compared to the group given vehicle alone was calculated using a general ANOVA using Dunnett's Multiple Comparison test when multiple compounds were tested in the one experiment or a two-tailed […] t-test when only one compound was tested (Prism 4, Graphpad Software). The data has been presented graphically as the mean percentage inhibition of oedema, calculated as: […]. Results

[3] = system: neonatal foreskin fibroblasts (NFF); experiment: Toxicity to normal cells, neonatal foreskin fibroblasts; type: cell-based; conditions: Fibroblast
Procedure: IC50 values were determined for each cell line. Cells were seeded in 96-well plates at an appropriate cell density as determined from growth kinetics analysis and cultured for 5 days in the absence and presence of the test compounds. Cell proliferation was assessed after the addition of 20 μl of 3-4,5 dimethylthiazol-2,5-diphenyl tetrazolium bromide (MTT, 2.5 mg/ml in PBS, Sigma) for 3-4 hrs at 37° C. according to manufacturer's instructions. IC50 values were calculated from semi-log plots of % of control proliferation on the y-axis against log dose on the x-axis.
The neonatal foreskin fibroblasts (NFF) were a gift from Dr. Peter Parsons (Queensland Institute of Medical Research). Rabbit kidney (RK-13) cells were obtained from Miller Whalley (Macquarie University). Both cell lines were cultured in RPMI supplemented with 10% FCS(CSL, Australia), penicillin (100 U/ml), streptomycin ([…]), L-glutamine (2 mM) and sodium bicarbonate (1.2 g/L), and cultured at 37° C. in a humidified atmosphere of 5% CO2. IC50 values were determined as described above.

unstimulated lymphocytes = experiment: Unstimulated lymphocytes, viable cell number (MTT); type: cell-based, Skh-1:HR 1 (hairless) mice; conditions: 10 μM; absence of mitogenic stimulation
Procedure: Male Skh-1:HR 1 (hairless) mice, approximately six weeks old were killed by cervical dislocation. Single cell suspensions were made from the spleen and erythrocytes were lysed in buffer (0.14 M NH4Cl, 17 mM Tris, pH 7.2). The remaining splenocytes were cultured in RPMI-1640 (Gibco) supplemented with 10% (v:v) FBS, 200 mM L-glutamine, penicillin/streptomycin and […] 2-mercaptoethanol. Splenocytes were added to quadruplicate wells containing either concanavalin A (ConA, Sigma-Aldrich—0.4 μg/well), LPS (Sigma-Aldrich—1 μg/well) or no mitogen, as well 10 μM of test compound in DMSO. Samples were analysed after 3 days incubation at 37° C. in 5% CO2 in air. Methylthiazoletetrazolium (MTT) is bioreduced by viable cells into a coloured formazan product that is soluble in DMSO. Thus the quantity of formazan product is directly proportional to the number of living cells in culture, and can be measured using a spectrophotometer at 570 nm. MTT was added to each well, incubated for a further 4 hrs and then colour developed with 0.04 N HCl in isopropanol. Culture supernatants were stored after collection at −80° C. and analysed by ELISA (BD Biosciences) for IFN-γ (a Th-1 cytokine) and for T cells alone, IL-6 (a Th-2 cytokine).

CP70 = experiment: Anti-cancer activity, CP70 ovarian cancer cells (MTT); type: cell-based; conditions: 120 h, 5 days
NCI-H460 = experiment: Anti-cancer activity, NCI-H460 large cell lung cancer cells (MTT); type: cell-based; conditions: Homo sapiens, NCI-H460, 120 h, 5 days, read-out: IC50 μM, NCI-H460 Lung (NSCLC)
A10 smooth muscle cells = experiment: Proliferation of A10 smooth muscle cells from the media of rat aorta; type: cell-based; conditions: A10, 72 h, three days, read-out: IC50, inhibition of proliferation in A10 cells
Procedure: as §1, §2

MDA-MB-468 = experiment: Anti-cancer activity, MDA-MB-468 breast cancer cells (MTT); type: cell-based; conditions: Homo sapiens, MDA-MB-468, 120 h, 5 days
PMA-induced ear oedema = experiment: PMA-induced ear swelling in mice; type: in vivo, BALB/c mice; conditions: 25 mg/kg i/p; 5 h after PMA
Procedure: as §3

[4] = normal, non-transformed cells, read-out: IC50 μM, NFF Fibroblast
[5] = read-out: toxicity to normal fibroblast cell line / NFFs (IC50)

Compound | IC50 [1] | IC50 ([2]; Homo sapiens, average over three different assays, 4-5 days, read-out: average IC50, inhibition of proliferation of HUVSMC) | % Change compared with vehicle (AA-induced ear oedema) | Change in ear thickness (mean ± SD, × 0.01 mm) (AA-induced ear oedema) | IC50 [3, 4] | IC50 [3, 5] | reduction of viable cell numbers (unstimulated lymphocytes) | IC50 (CP70) | IC50 (NCI-H460) | IC50 (A10 smooth muscle cells) | IC50 (MDA-MB-468) | % Change compared with vehicle (PMA-induced ear oedema) | Change in ear thickness (mean ± SD, × 0.01 mm) (PMA-induced ear oedema) | effect on proliferation of HUVSMCs induced by FCS ([2]; 10 μM, 10% FCS, 5 days, FIG. 8)
Oc1ccc(C2=Cc3cc4c(cc3OC2)OCN(Cc2ccccc2)C4)cc1 [Compound 1, 4-(3-Benzyl-2,3,4,8-tetrahydrochromeno[6,7-e][1,3]oxazin-7-yl)phenol] | 23 µM | 15 µM | −18% | 20 ± 0.9 × 0.01 mm | 15.1 µM | ~15 µM | approximately 50% | 5.51 ± 2.6 µM | 4.61 µM | 11 µM | 5.25 ± 2.1 µM | −9% | 28.9 ± 3.1 × 0.01 mm | 
CC(c1ccccc1)N1COc2cc3c(cc2C1)C=C(c1ccc(O)cc1)CO3 (centres unmarked) [Compound 2, 4-(3-(1-Phenylethyl)-2,3,4,8-tetrahydrochromeno[6,7-e][1,3]oxazin-7-yl)phenol] |  |  | −39% | 15.9 ± 4.2 × 0.01 mm | 33.2 µM | > 30 µM | approximately 50% | 8.1 ± 3 µM | 8.77 ± 3.7 µM |  | 4.87 ± 2.6 µM | −3% | 30.9 ± 2.2 × 0.01 mm | significantly inhibited the proliferation
Oc1cccc(C2=Cc3ccc(O)cc3OC2)c1 [Compound 37-DHE, 3′,7-dihydroxy-isoflav-3-ene, reference compound] | 45 µM |  |  |  |  |  |  |  |  | 31 µM |  |  |  | 

Reference: patent US8367659B2, “Oxazinyl isoflavonoid compounds, medicaments and use” (Marshall Edwards, Inc., priority 2007, dated 2013)
